Reference: patent US10106544B2, “1,2-dihydro-3H-pyrrolo[1,2-C]imidazol-3-one derivatives and their use as antibacterial agents” (priority 2014, dated 2018)
≈ marks a conversion by molar mass, not a printed value.

How the values were obtained:
Assay in all cases: Bacterial growth minimal inhibitory concentration (microdilution, cation-adjusted Mueller-Hinton Broth)
Assay type in all cases: cell-based
K. pneumoniae A-651 = details: multiply-resistant strain (in particular quinolone-resistant); for MIC: Klebsiella pneumoniae, A651, read-out: MIC for K. Pneumoniae A-651
Method: (§1) Minimal Inhibitory Concentrations (MICs; mg/L) were determined in cation-adjusted Mueller-Hinton Broth by a microdilution method following the description given in “Methods for Dilution Antimicrobial Susceptibility Tests for Bacteria that Grow Aerobically”, Approved standard, 7th ed., a Clinical and Laboratory Standards Institute (CLSI) Document M7-A7, Wayne, Pa., USA (2006).
(§2) All Example compounds were tested against several Gram-positive and Gram-negative bacteria. […] K. pneumoniae A-651 is a multiply-resistant strain (in particular quinolone-resistant), while E. coli ATCC25922 and P. aeruginosa ATCC27853 are quinolone-sensitive strains.

P. aeruginosa ATCC27853 = details: for MIC: Pseudomonas aeruginosa, ATCC27853, quinolone-sensitive strain, read-out: MIC for P. aeruginosa ATCC27853
Method: as §1, §2

E. coli ATCC25922 = details: quinolone-sensitive strain; for MIC: Escherichia coli, ATCC25922, read-out: MIC for E. coli ATCC25922
Method: as §1, §2

SMILES | MIC (K. pneumoniae A-651) [µg/mL] | MIC (P. aeruginosa ATCC27853) [µg/mL] | MIC (E. coli ATCC25922) [µg/mL] | MIC for K. Pneumoniae A-651 (K. pneumoniae A-651) [µg/mL] | MIC for P. aeruginosa ATCC27853 (P. aeruginosa ATCC27853; quinolone-sensitive strain) [µg/mL] | MIC for E. coli ATCC25922 (E. coli ATCC25922) [µg/mL]
C[C@@H](O)c1ccc(C#Cc2cc3n(c2)C(=O)N(CC[C@](C)(C(=O)NO)S(C)(=O)=O)C3)cc1 [Example 13, (R)-N-hydroxy-4-(6-((4-((R)-1-hydroxyethyl)phenyl)ethynyl)-3-oxo-1H-pyrrolo[1,2-c]imidazol-2(3H)-yl)-2-methyl-2-(methylsulfonyl)butanamide] | 0.25 (≈ 0.544 µM) | 0.5 (≈ 1.09 µM) | 0.125 (≈ 0.272 µM) | – | – | –
C[C@H](O)c1ccc(C#Cc2cc3n(c2)C(=O)N(CC[C@](C)(C(=O)NO)S(C)(=O)=O)C3)cc1 [Example 14] | – | – | – | 0.25 | 1 | 0.125
C[C@@](CCN1Cc2cc(C#CC#CC3(CO)CC3)cn2C1=O)(C(=O)NO)S(C)(=O)=O [Example 15, (R)-N-hydroxy-4-(6-((1-(hydroxymethyl)cyclopropyl)buta-1,3-diyn-1-yl)-3-oxo-1H-pyrrolo[1,2-c]imidazol-2(3H)-yl)-2-methyl-2-(methylsulfonyl)butanamide] | 1 (≈ 2.31 µM) | 1 (≈ 2.31 µM) | 0.5 (≈ 1.15 µM) | – | – | –
C[C@@](CCN1Cc2cc(C#Cc3ccc(CCO)cc3)cn2C1=O)(C(=O)NO)S(C)(=O)=O [Example 16, (R)-N-hydroxy-4-(6-((4-(2-hydroxyethyl)phenyl)ethynyl)-3-oxo-1H-pyrrolo[1,2-c]imidazol-2(3H)-yl)-2-methyl-2-(methylsulfonyl)butanamide] | 0.25 (≈ 0.544 µM) | 0.5 (≈ 1.09 µM) | ≤ 0.063 | – | – | –
C[C@@](CCN1Cc2cc(C#Cc3ccc([C@@H](O)CO)cc3)cn2C1=O)(C(=O)NO)S(C)(=O)=O [Example 17, (R)-4-(6-((4-((R)-1,2-dihydroxyethyl)phenyl)ethynyl)-3-oxo-1H-pyrrolo[1,2-c]imidazol-2(3H)-yl)-N-hydroxy-2-methyl-2-(methylsulfonyl)butanamide] | 1 (≈ 2.1 µM) | 1 (≈ 2.1 µM) | 1 (≈ 2.1 µM) | – | – | –
C[C@@](CCN1Cc2cc(C#Cc3ccc([C@H](O)CO)cc3)cn2C1=O)(C(=O)NO)S(C)(=O)=O [Example 18, (R)-4-(6-((4-((S)-1,2-dihydroxyethyl)phenyl)ethynyl)-3-oxo-1H-pyrrolo[1,2-c]imidazol-2(3H)-yl)-N-hydroxy-2-methyl-2-(methylsulfonyl)butanamide] | 1 (≈ 2.1 µM) | 1 (≈ 2.1 µM) | 0.5 (≈ 1.05 µM) | – | – | –
C[C@@](CCN1Cc2cc(C#Cc3ccc(C4(CO)CC4)cc3F)cn2C1=O)(C(=O)NO)S(C)(=O)=O [Example 19, (R)-4-(6-((2-fluoro-4-(1-(hydroxymethyl)cyclopropyl)phenyl)ethynyl)-3-oxo-1H-pyrrolo[1,2-c]imidazol-2(3H)-yl)-N-hydroxy-2-methyl-2-(methylsulfonyl)butanamide] | 0.5 (≈ 0.993 µM) | 1 (≈ 1.99 µM) | 0.25 (≈ 0.496 µM) | – | – | –
C[C@@](CCN1Cc2cc(C#Cc3ccc(N4CCN(CCO)C4=O)cc3)cn2C1=O)(C(=O)NO)S(C)(=O)=O [Example 20, (R)-N-hydroxy-4-(6-((4-(3-(2-hydroxyethyl)-2-oxoimidazolidin-1-yl)phenyl)ethynyl)-3-oxo-1H-pyrrolo[1,2-c]imidazol-2(3H)-yl)-2-methyl-2-(methylsulfonyl)butanamide] | 4 (≈ 7.36 µM) | 4 (≈ 7.36 µM) | 1 (≈ 1.84 µM) | – | – | –
C[C@@](CCN1Cc2cc(C#Cc3ccc(NC(=O)CO)c(F)c3)cn2C1=O)(C(=O)NO)S(C)(=O)=O [Example 21, (R)-4-(6-((3-fluoro-4-(2-hydroxyacetamido)phenyl)ethynyl)-3-oxo-1H-pyrrolo[1,2-c]imidazol-2(3H)-yl)-N-hydroxy-2-methyl-2-(methylsulfonyl)butanamide] | 1 (≈ 1.97 µM) | 1 (≈ 1.97 µM) | 0.25 (≈ 0.494 µM) | – | – | –

Next, values leading:

MIC (K. pneumoniae A-651) [µg/mL] | MIC (P. aeruginosa ATCC27853) [µg/mL] | MIC (E. coli ATCC25922) [µg/mL] | MIC for K. Pneumoniae A-651 (K. pneumoniae A-651) [µg/mL] | MIC for P. aeruginosa ATCC27853 (P. aeruginosa ATCC27853; quinolone-sensitive strain) [µg/mL] | MIC for E. coli ATCC25922 (E. coli ATCC25922) [µg/mL] | SMILES
0.5 (≈ 1.05 µM) | 1 (≈ 2.1 µM) | 0.125 (≈ 0.263 µM) | – | – | – | C[C@@](CCN1Cc2cc(C#Cc3ccc(OCCO)cc3)cn2C1=O)(C(=O)NO)S(C)(=O)=O [Example 22, (R)-N-hydroxy-4-(6-((4-(2-hydroxyethoxy)phenyl)ethynyl)-3-oxo-1H-pyrrolo[1,2-c]imidazol-2(3H)-yl)-2-methyl-2-(methylsulfonyl)butanamide]
4 (≈ 8.22 µM) | 4 (≈ 8.22 µM) | 1 (≈ 2.06 µM) | – | – | – | C[C@@](CCN1Cc2cc(C#Cc3ccc(C4(CO)CC4)nc3)cn2C1=O)(C(=O)NO)S(C)(=O)=O [Example 23, (R)-N-hydroxy-4-(6-((6-(1-(hydroxymethyl)cyclopropyl)pyridin-3-yl)ethynyl)-3-oxo-1H-pyrrolo[1,2-c]imidazol-2(3H)-yl)-2-methyl-2-(methylsulfonyl)butanamide]
32 | 8 | 8 | – | – | – | C[C@@](CCN1Cc2cc(C#Cc3ccc(C4(CO)CC4)cn3)cn2C1=O)(C(=O)NO)S(C)(=O)=O.O=CO [Example 24, (R)-N-hydroxy-4-(6-((5-(1-(hydroxymethyl)cyclopropyl)pyridin-2-yl)ethynyl)-3-oxo-1H-pyrrolo[1,2-c]imidazol-2(3H)-yl)-2-methyl-2-(methylsulfonyl)butanamide formate]
0.25 (≈ 0.486 µM) | 1 (≈ 1.94 µM) | 0.125 (≈ 0.243 µM) | – | – | – | C[C@@](CCN1Cc2cc(C#Cc3ccc(CN4CCOCC4)cc3)cn2C1=O)(C(=O)NO)S(C)(=O)=O [Example 25, (R)-N-hydroxy-2-methyl-2-(methylsulfonyl)-4-(6-((4-(morpholinomethyl)phenyl)ethynyl)-3-oxo-1H-pyrrolo[1,2-c]imidazol-2(3H)-yl)butanamide]
1 (≈ 1.8 µM) | 4 (≈ 7.21 µM) | 1 (≈ 1.8 µM) | – | – | – | C[C@@](CCN1Cc2cc(C#Cc3ccc(C4(CN5CCOCC5)CC4)cc3)cn2C1=O)(C(=O)NO)S(C)(=O)=O [Example 26, (R)-N-hydroxy-2-methyl-2-(methylsulfonyl)-4-(6-((4-(1-(morpholinomethyl)cyclopropyl)phenyl)ethynyl)-3-oxo-1H-pyrrolo[1,2-c]imidazol-2(3H)-yl)butanamide]
0.25 (≈ 0.577 µM) | 0.5 (≈ 1.15 µM) | ≤ 0.063 | – | – | – | C[C@@](CCN1Cc2cc(C#CC#C[C@@H]3C[C@H]3CO)cn2C1=O)(C(=O)NO)S(C)(=O)=O [Example 27, (R)-N-hydroxy-4-(6-(((1R,2R)-2-(hydroxymethyl)cyclopropyl)buta-1,3-diyn-1-yl)-3-oxo-1H-pyrrolo[1,2-c]imidazol-2(3H)-yl)-2-methyl-2-(methylsulfonyl)butanamide]
0.25 (≈ 0.569 µM) | 1 (≈ 2.28 µM) | ≤ 0.063 | – | – | – | COc1cccc(-c2cc3n(c2)C(=O)N(CC[C@](C)(C(=O)NO)S(C)(=O)=O)C3)c1F [Example 28, (R)-4-(6-(2-fluoro-3-methoxyphenyl)-3-oxo-1H-pyrrolo[1,2-c]imidazol-2(3H)-yl)-N-hydroxy-2-methyl-2-(methylsulfonyl)butanamide]
0.5 (≈ 1.12 µM) | 2 (≈ 4.47 µM) | 0.25 (≈ 0.559 µM) | – | – | – | C[C@@](CCN1Cc2cc(/C=C/c3ccc(CO)cc3)cn2C1=O)(C(=O)NO)S(C)(=O)=O [Example 29, (R)-(E)-N-hydroxy-4-(6-(4-(hydroxymethyl)styryl)-3-oxo-1H-pyrrolo[1,2-c]imidazol-2(3H)-yl)-2-methyl-2-(methylsulfonyl)butanamide]
0.25 (≈ 0.544 µM) | 0.5 (≈ 1.09 µM) | 0.125 (≈ 0.272 µM) | – | – | – | C[C@@](CCN1Cc2cc(C#CC#CC34CC(CO)(C3)C4)cn2C1=O)(C(=O)NO)S(C)(=O)=O [Example 30, (R)-N-hydroxy-4-(6-(4-(3-(hydroxymethyl)bicyclo[1.1.1]pentan-1-yl)buta-1,3-diyn-1-yl)-3-oxo-1H-pyrrolo[1,2-c]imidazol-2(3H)-yl)-2-methyl-2-(methylsulfonyl)butanamide]
